The values that follow come from ChEMBL document CHEMBL1141018, “Synthesis and biological evaluation of homopiperazine derivatives with beta-aminoacyl group as dipeptidyl peptidase IV inhibitors” (Bioorg Med Chem Lett, 2008).

One test addresses Dipeptidyl peptidase 4 (Homo sapiens, UniProt P27487).
In the next test the target is Dipeptidyl peptidase 2 (Homo sapiens, UniProt Q9UHL4). Put plainly: Inhibition of DPP2.

Dipeptidyl peptidase 4, sequence (P27487 whole entry): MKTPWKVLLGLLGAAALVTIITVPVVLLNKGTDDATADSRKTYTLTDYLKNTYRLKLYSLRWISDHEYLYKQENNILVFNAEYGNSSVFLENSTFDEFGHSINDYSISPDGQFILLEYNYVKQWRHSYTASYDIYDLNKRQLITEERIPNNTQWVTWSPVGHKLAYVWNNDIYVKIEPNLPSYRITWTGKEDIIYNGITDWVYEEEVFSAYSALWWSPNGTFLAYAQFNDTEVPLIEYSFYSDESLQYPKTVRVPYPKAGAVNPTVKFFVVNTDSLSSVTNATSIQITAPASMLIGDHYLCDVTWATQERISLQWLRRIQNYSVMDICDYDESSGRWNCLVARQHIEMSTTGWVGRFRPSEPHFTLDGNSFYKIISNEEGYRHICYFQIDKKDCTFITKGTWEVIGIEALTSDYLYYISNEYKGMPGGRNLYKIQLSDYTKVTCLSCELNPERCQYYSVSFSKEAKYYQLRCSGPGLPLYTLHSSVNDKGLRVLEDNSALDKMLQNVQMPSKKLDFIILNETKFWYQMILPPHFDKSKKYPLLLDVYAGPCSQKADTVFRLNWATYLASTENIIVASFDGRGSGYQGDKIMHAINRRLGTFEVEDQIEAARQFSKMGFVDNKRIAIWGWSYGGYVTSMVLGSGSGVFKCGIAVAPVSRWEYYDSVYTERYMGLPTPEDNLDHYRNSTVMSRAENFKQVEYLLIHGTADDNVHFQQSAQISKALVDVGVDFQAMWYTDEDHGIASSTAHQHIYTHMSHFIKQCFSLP

The compound `N[C@@H](CC(=O)N1CCCN(C(=O)c2ccc(C(=O)O)o2)CC1)Cc1cc(F)c(F)cc1F` yielded an IC50 on Dipeptidyl peptidase 4 of 260 nM.

With `N[C@@H](CC(=O)N1CCCN(S(=O)(=O)c2ccc(C(=O)O)cc2)CC1)Cc1cc(F)c(F)cc1F`, the IC50 on Dipeptidyl peptidase 4 was found to be 239 nM.

On to `N[C@@H](CC(=O)N1CCCN(C(=O)Nc2ccc(C(=O)O)cc2)CC1)Cc1cc(F)c(F)cc1F`, for which the IC50 against Dipeptidyl peptidase 4 came to 788 nM.

In turn, `NC(=O)c1ccc(C(=O)N2CCCN(C(=O)C[C@H](N)Cc3cc(F)c(F)cc3F)CC2)cc1` came in with an IC50 against Dipeptidyl peptidase 4 of 180 nM.

Take `N[C@@H](CC(=O)N1CCCN(C(=O)c2ccc(S(N)(=O)=O)cc2)CC1)Cc1cc(F)c(F)cc1F`: the IC50 against Dipeptidyl peptidase 4 is 288 nM.

At Dipeptidyl peptidase 4, `N[C@@H](CC(=O)N1CCCN(C(=O)c2ccc(C(=O)O)nc2)CC1)Cc1cc(F)c(F)cc1F` registered an IC50 of 150 nM.

As for `N[C@@H](CC(=O)N1CCCN(C(=O)c2cccc(C(=O)O)c2)CC1)Cc1cc(F)c(F)cc1F`, the results for the IC50 against Dipeptidyl peptidase 4 and against Dipeptidyl peptidase 2 were 50 nM and 46800 nM, respectively.

`N[C@@H](CC(=O)N1CCCN(C(=O)c2cncc(C(=O)O)c2)CC1)Cc1cc(F)c(F)cc1F`: the results for the IC50 at Dipeptidyl peptidase 4 and at Dipeptidyl peptidase 2 were 67 nM and 99400 nM, respectively.

Turning to `CC(=O)N1CCCN(C(=O)C[C@H](N)Cc2cc(F)c(F)cc2F)CC1`, inhibition against Dipeptidyl peptidase 4 was half-maximal at 3400 nM (IC50).

In the case of `N[C@@H](CC(=O)N1CCCN(C(=O)c2ccc3c(c2)OCO3)CC1)Cc1cc(F)c(F)cc1F`, at Dipeptidyl peptidase 4, the IC50 stood at 490 nM.

In turn, `CCN1CCCN(C(=O)C[C@H](N)Cc2cc(F)c(F)cc2F)CC1` yielded an IC50 on Dipeptidyl peptidase 4 of 6400 nM.

In the case of `N[C@@H](CC(=O)N1CCCN(c2cnccn2)CC1)Cc1cc(F)c(F)cc1F`, at Dipeptidyl peptidase 4, the IC50 stood at 423 nM.

Compound `N[C@@H](CC(=O)N1CCCN(C(=O)c2cccnc2)CC1)Cc1cc(F)c(F)cc1F` showed an IC50 against Dipeptidyl peptidase 4 of 410 nM.

Compound `N[C@@H](CC(=O)N1CCCN(C(=O)OCc2ccccc2)CC1)Cc1cc(F)c(F)cc1F` displayed an IC50 against Dipeptidyl peptidase 4 of 490 nM.

On Dipeptidyl peptidase 4, `CN1CCN(C(=O)N2CCCN(C(=O)C[C@H](N)Cc3cc(F)c(F)cc3F)CC2)CC1` registered a concentration for half-maximal inhibition (IC50) of 1500 nM.

`Cc1ccc(S(=O)(=O)N2CCCN(C(=O)C[C@H](N)Cc3cc(F)c(F)cc3F)CC2)cc1` gave an IC50 at Dipeptidyl peptidase 4 of 350 nM.

`CS(=O)(=O)N1CCCN(C(=O)C[C@H](N)Cc2cc(F)c(F)cc2F)CC1` gave an IC50 on Dipeptidyl peptidase 4 of 3100 nM.

Turning to `N[C@@H](CC(=O)N1CCCN(S(=O)(=O)c2ccc([N+](=O)[O-])cc2)CC1)Cc1cc(F)c(F)cc1F`, the 50% inhibitory concentration (IC50) on Dipeptidyl peptidase 4 was 405 nM.

As to `N[C@@H](CC(=O)N1CCCN(C(=O)c2ccccc2)CC1)Cc1cc(F)c(F)cc1F`, half-maximal inhibition at Dipeptidyl peptidase 4 (IC50) required 510 nM.

Turning to `N[C@@H](CC(=O)N1CCCNCC1)Cc1cc(F)c(F)cc1F`, on Dipeptidyl peptidase 4, it took 1440 nM to reach half-maximal inhibition (IC50).

The compound `N[C@@H](CC(=O)N1CCCN(c2ncccn2)CC1)Cc1cc(F)c(F)cc1F` came in with an IC50 at Dipeptidyl peptidase 4 of 597 nM.

Consider `N[C@@H](CC(=O)N1CCCN(Cc2ccccc2)CC1)Cc1cc(F)c(F)cc1F`, for which the IC50 at Dipeptidyl peptidase 4 was 387 nM.

Consider `N[C@@H](CC(=O)N1CCCN(C(=O)Nc2ccccc2)CC1)Cc1cc(F)c(F)cc1F`, for which the concentration for half-maximal inhibition (IC50) against Dipeptidyl peptidase 4 came to 1390 nM.
